Test results from patent US12145947B2, “Pyrimidine based modulators and uses thereof” (Quanta Therapeutics, Inc., priority 2022, dated 2024).

Tests used:
Assay type in all cases: binding
KRAS G12V/RAF1 = biological target: T1, KRAS G12V/RAF1 (Homo sapiens, UniProt P01116, G12V); test: Protein-protein interaction (PPI) HTRF assay KRAS G12V/RAF1; details: Table 3; KRASG12V/RAF1
T1 construct: His6-MBP (N, cleaved yes); made in house; host or cells: E. coli
Description: (§1) Biotinylated KRAS wt and KRAS G12DNV proteins were expressed and purified in conditions similar to those previously reported (Tran, et al., 2021) (Zhang, et al., 2020). Briefly, KRAS (1-169) proteins were expressed in E. coli at 18° C. with an upstream TEV cleavage site (ENLFYQS (SEQ ID NO: 6)) followed an Avi tag sequence ([…] (SEQ ID NO: 7)). KRAS expression constructs contained both a His6 (SEQ ID NO: 8) and maltose-binding protein (MBP) tags at the N-terminus for Ni-NTA column purification prior to overnight TEV cleavage and MBP column purification. The avi-tagged NRAS expression construct contained both a His6 tag (SEQ ID NO: 8) and SUMO cleavage sige at the N-terminus for Ni-NTA column purification followed by His-ULPi digestion overnight. […]
(§2) When RAS proteins are in the active GTP-bound conformation, they bind the effector protein RAF1 at the N-terminus Ras-binding domain (RBD, residues 52-131) (Tran, et al., 2021). Homogenous time resolved fluorescence (HTRF) was used to monitor the interaction between wt or mutant KRAS and RAF1 or wt NRAS and RAFT. […] The intensity of the fluorescence signal emitted is proportional to binding between the two proteins. […] The fluorescence signal emitted was monitored at 665 nm and 615 nm using an Envision multimode plate reader. […]

w.t.KRAS/RAF1 = biological target: T2, w.t.KRAS/RAF1 (Homo sapiens, UniProt P01116); test: Protein-protein interaction (PPI) HTRF assay w.t.KRAS/RAF1; details: Table 3; wtKRAS/RAF1
T2 construct: His6-MBP (N, cleaved yes); made in house; host or cells: E. coli
T2 sequence (P01116 with tags, fused parts or gaps isoform P01116-2): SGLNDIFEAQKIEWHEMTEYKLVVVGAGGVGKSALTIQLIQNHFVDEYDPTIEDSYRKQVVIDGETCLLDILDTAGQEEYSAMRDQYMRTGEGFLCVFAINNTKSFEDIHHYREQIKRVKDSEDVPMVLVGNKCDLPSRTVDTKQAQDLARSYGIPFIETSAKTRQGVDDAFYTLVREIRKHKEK
Description: as §1, §2

w.t. NRAS/RAF1 = biological target: T3, w.t. NRAS/RAF1 (Homo sapiens, UniProt P01111); test: Protein-protein interaction (PPI) HTRF assay NRAS/RAF1; details: Table 3; wtNRAS/RAF1
T3 construct: His6-SUMO (N, cleaved yes); made in house; host or cells: E. coli (printed for KRAS and RAF1)
T3 sequence (P01111 with tags, fused parts or gaps): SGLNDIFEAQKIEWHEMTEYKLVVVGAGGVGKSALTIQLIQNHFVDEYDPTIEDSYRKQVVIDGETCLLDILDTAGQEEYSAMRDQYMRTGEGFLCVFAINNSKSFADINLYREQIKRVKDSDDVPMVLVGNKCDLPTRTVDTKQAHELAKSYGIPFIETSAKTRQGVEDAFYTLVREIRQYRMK
Description: as §1, §2

T1 sequence (P01116 with tags, fused parts or gaps isoform P01116-2 G12V): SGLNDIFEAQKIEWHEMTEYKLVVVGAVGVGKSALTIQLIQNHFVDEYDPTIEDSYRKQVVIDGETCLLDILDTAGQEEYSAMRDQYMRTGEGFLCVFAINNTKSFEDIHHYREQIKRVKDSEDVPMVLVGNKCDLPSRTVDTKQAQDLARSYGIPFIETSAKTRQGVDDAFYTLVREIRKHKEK

SMILES | IC50 (KRAS G12V/RAF1) | IC50 (w.t.KRAS/RAF1) | IC50 (w.t. NRAS/RAF1)
CN(C)C(=O)c1nn2c(c1Cl)CN(c1nc(OC[C@@]34CCCN3C[C@H](F)C4)nc(N3CC4(CCc5sc(N)c(C#N)c54)C3)c1C#N)CCC2 [Compound 2, 5-[6-(2-amino-3-cyano-spiro[5,6-dihydrocyclopenta[b]thiophene-4,3′-azetidine]-1′-yl)-5-cyano-2-[[(2R,8S)-2-fluoro-1,2,3,5,6,7-hexahydropyrrolizin-8-yl]methoxy]pyrimidin-4-yl]-3-chloro-N,N-dimethyl-4,6,7,8-tetrahydropyrazolo[1,5-a][1,4]diazepine-2-carboxamide] | 1 to 10 µM | 1 to 10 µM | > 100 µM
CN(C)C(=O)c1nn2c(c1Cl)CN(c1nc(OC[C@@]34CCCN3C[C@H](F)C4)nc(N3CC4(CCCc5sc(N)c(C#N)c54)C3)c1C#N)CCC2 [Compound 3, 5-[6-(2-amino-3-cyano-spiro[6,7-dihydro-5H-benzothiophene-4,3′-azetidine]-1′-yl)-5-cyano-2-[[(2R,8S)-2-fluoro-1,2,3,5,6,7-hexahydropyrrolizin-8-yl]methoxy]pyrimidin-4-yl]-3-chloro-N,N-dimethyl-4,6,7,8-tetrahydropyrazolo[1,5-a][1,4]diazepine-2-carboxamide] | 10 to 100 µM |  | > 100 µM
